From PubChem BioAssay (NCI)
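Cultured in 96-well plates, cells were exposed to test compound for 48 hours across five concentrations. At the GI50, growth is halved. TGI is the concentration that stops growth completely.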

What was measured:
Experiment in all cases: growth of human tumour cells (NCI), 48 h
[1] = system: SF-295 CNS
[2] = system: T-47D breast
[3] = system: UACC-257 melanoma
[4] = system: SR leukemia
[5] = system: SK-MEL-5 melanoma
[6] = system: UACC-62 melanoma
[7] = system: 786-0 renal
[8] = system: BT-549 breast
[9] = system: ACHN renal
[10] = system: SK-OV-3 ovarian

SMILES | TGI [1] [µM] | TGI [2] [µM] | TGI [3] [µM] | TGI [4] [µM] | TGI [5] [µM] | TGI [6] [µM] | TGI [7] [µM] | TGI [8] [µM] | TGI [9] [µM] | TGI [10] [µM] | GI50 [4] [nM] | GI50 [6] [µM]
O=[N+]([O-])c1ccc(NC(=S)N=Nc2c(O)[nH]c3ccc([N+](=O)[O-])cc23)cc1 | 45.1 | 63.1 | 50.3 | > 100 | 30.7 | 49.1 | 32.3 | 33.7 | 74 | 41.8 | – | –
Cc1c(CN2CCN(C)CC2)c(CN2CCN(C)CC2)c(C)n1-c1ccc(Cl)cc1 | 48.9 | 46.4 | 29.1 | 40.8 | 31.7 | 33.9 | 46.4 | > 100 | > 100 | > 100 | – | –
O=C1NC2CCCCC2N=C1CC(=O)c1ccc(Br)cc1 (stereo not given) | > 100 | > 100 | > 100 | > 100 | > 100 | > 100 | > 100 | 94.2 | > 100 | > 100 | – | –
COc1ccccc1C1Nn2c(nc3ccccc3c2=O)N1c1ccc(C)cc1 (stereo not given) | 17.8 | 21 | 43.3 | 6.43 | 22.5 | 22.2 | 8.37 | 68.6 | 16.7 | 15.7 | – | –
COc1cc(CC(C)NC(C)=O)cc(OC)c1 (stereo not given) | > 100 | > 100 | > 100 | > 100 | > 100 | > 100 | > 100 | > 100 | > 100 | > 100 | – | –
Cc1cc(C)c2c(=O)cc(-c3cccc(F)c3)[nH]c2n1 | 0.199 | > 100 | > 100 | 0.122 | 6.38 | – | > 64.2 | > 22 | > 100 | > 100 | – | –
Cc1cc(S(=O)(=O)Nc2n[nH]c(-c3ccccn3)n2)c(S)cc1Cl | – | 56.2 | > 100 | > 100 | 24.3 | 34.8 | 72.7 | 79.6 | 54.1 | 37.3 | – | –
CC(=O)OCC1OC(n2c(-c3ccccc3)c(N=Nc3ccccc3)c(C)c(C#N)c2=S)C(OC(C)=O)C(OC(C)=O)C1OC(C)=O (stereo not given) | > 100 | > 100 | > 100 | > 100 | > 100 | > 100 | > 100 | > 100 | > 100 | > 100 | – | –
COc1cc(C(=O)Oc2ccc3c(c2)OCO3)cc(OC)c1OC | > 100 | > 100 | > 100 | > 100 | > 100 | > 100 | > 100 | > 100 | > 100 | > 100 | – | –
c1cncc(CC2(c3cc4ccccc4[nH]3)OCCO2)c1 | > 100 | > 100 | > 100 | > 100 | > 100 | > 100 | > 100 | > 100 | > 100 | > 100 | – | –
Cc1ccc2c(c1)-c1c(C#N)c(N)nc(-c3ccc(Cl)cc3)c1CCS2(=O)=O | > 100 | > 100 | > 100 | 6.18 | > 68 | > 100 | > 100 | > 100 | > 100 | > 100 | – | –
CN(C)CCCNC(=O)c1cc(NC(=O)c2cc(NC(=O)CCCn3c4ccccc4c4ccccc43)cn2C)cn1C | > 69.7 | 28 | 41.2 | 4.82 | 19.6 | 23 | 28.7 | 46.7 | > 65.9 | 30.8 | 2240 | 7.28
COc1ccc(Nc2nc(N)c(C(=O)c3c[nH]c4ccccc34)s2)cc1 | > 100 | > 88.3 | > 91.4 | 0.796 | 14.4 | > 100 | 13.6 | > 40.5 | > 100 | > 100 | – | –
Cn1c(=O)c2c(nc3n(Cc4ccccc4)c(=O)c(NCCCBr)cn23)n(C)c1=O | > 100 | > 100 | > 100 | > 100 | > 100 | > 100 | > 100 | > 100 | > 100 | 97.3 | – | –
COc1ccc(-c2c3c(n(C4OC(CO)C(O)C(O)C4O)c(=S)c2C#N)CCC3)cc1 (stereo not given) | > 100 | > 100 | > 100 | > 100 | 38.8 | > 100 | > 100 | > 100 | > 100 | > 100 | – | –
COc1ccc(OC2OC(CO)C(OCc3ccccc3)C(OCc3ccccc3)C2OCc2ccccc2)cc1 (stereo not given) | > 100 | > 100 | > 100 | > 100 | > 100 | > 100 | > 100 | > 100 | > 100 | > 100 | – | –
CCOc1ccc(Nc2nc(N)nc(N)c2N)cc1 | 45.8 | 54.3 | > 100 | 59.3 | > 100 | > 100 | 52.3 | 76.6 | > 100 | > 100 | – | –
CC1CCC2(NC1)OC1CC3C4CC=C5CC(OC6OC(CO)C(OC7OC(C)C(O)C(O)C7O)C(O)C6OC6OC(C)C(O)C(O)C6O)CCC5(C)C4CCC3(C)C1C2C (stereo not given) | 3.94 | 29 | 6.67 | 27.8 | 33.9 | 7.71 | 3.72 | 30.3 | 14.6 | 19.5 | – | –

SMILES | TGI [1] [µM] | TGI [2] [µM] | TGI [3] [µM] | TGI [4] [µM] | TGI [5] [µM] | TGI [6] [µM] | TGI [7] [µM] | TGI [8] [µM] | TGI [9] [µM] | TGI [10] [µM] | GI50 [4] [nM] | GI50 [6] [µM]
Cc1cc(C)c(S(=O)(=O)N(CCCN)OCCCON(CCCN)S(=O)(=O)c2c(C)cc(C)cc2C)c(C)c1 | 21.4 | 3.36 | 3.44 | 7.83 | > 42.8 | 6.09 | 5.86 | 8.64 | 28.9 | 3.58 | – | –
CCC(CO)Nc1nc(NCc2ccccc2)c2ncn(C(C)C)c2n1 (stereo not given) | 50.9 | > 100 | > 94.7 | 19 | > 51.8 | 47 | > 80.7 | > 55.3 | > 100 | > 100 | – | –
CC(C)C(CC(=O)OCC(CO)OC(=O)CC(C(C)C)C(C)C)C(C)C (stereo not given) | 21.1 | 31.7 | 31.2 | > 100 | 24.7 | 32.8 | 27.9 | 33.1 | 24.3 | 30.9 | – | –
Nc1nc(Cl)cc(NCC2(O)CC2)n1 | > 100 | > 100 | > 100 | > 100 | > 100 | > 100 | > 100 | > 100 | > 100 | > 100 | – | –
CCCCSc1nsc(N(C(=O)c2ccccc2)C(=O)c2ccccc2)n1 | > 100 | > 100 | 74.9 | 48.3 | 36.6 | 60.1 | > 100 | 92.1 | > 100 | > 100 | – | –
COc1cccc2c1C(=O)c1c(O)c3c(c(O)c1C2=O)C[C@H](O)C[C@@H]3OC1CC(N)C(O)C(C)O1 (stereo not given in full) | 7.35 | 15.3 | 5.15 | 0.229 | 2.22 | 1.82 | 14.2 | 16 | 3.54 | 14.8 | – | –
COC(=O)C1C(C(=O)OC)C2(OC(c3ccc(Cl)cc3)=CC2=O)C12OC(c1ccc(Cl)cc1)=CC2=O (stereo not given) | 64.3 | 63.3 | 48.8 | 10.9 | 37.9 | 32.8 | 41 | 42.5 | 39.4 | > 100 | – | –
N#C/C(C(=O)Nc1ccc(Cl)cc1)=C(/N)N1CCCC1 | > 100 | > 100 | > 100 | > 100 | > 100 | > 100 | > 100 | > 100 | > 100 | > 100 | – | –
c1ccc2c(c1)Sc1nccc3ccnc-2c13 | > 100 | > 100 | > 100 | > 100 | > 100 | > 100 | > 100 | > 100 | 43.4 | > 100 | – | –
CN(C)CC1CCC/C(=C\c2ccc(OC(=O)c3ccc(Cl)cc3)cc2)C1=O (stereo not given) | 9.84 | 2.21 | 16.7 | > 100 | 12.1 | 13.4 | 2.3 | 7.55 | 8.44 | 34.6 | – | –
NC(=O)c1csc(C2(O)COC(CO)C2O)n1 (stereo not given) | > 100 | > 100 | > 100 | > 100 | > 100 | > 100 | > 100 | > 100 | > 100 | > 100 | – | –
CCn1c2ccc(C(=O)CCCN3CCCCC3)cc2c2cc(C(=O)CCCN3CCCCC3)ccc21 | 10.7 | 49.9 | 3.77 | 5.31 | 2.92 | 38.8 | 2.78 | 35 | 15.8 | 13.4 | – | –
C=C(C)OCOCCOC | > 100 | > 100 | > 100 | > 100 | > 100 | > 100 | > 100 | > 100 | > 100 | > 100 | – | –
C=C1C(OC2O[C@@H]3O[C@@]4(C)CC[C@H]5[C@H](C)CC[C@@H](C2=C)[C@@]35O4)O[C@@H]2O[C@@]3(C)CC[C@H]4[C@H](C)CC[C@@H]1[C@@]24O3 (stereo not given in full) | > 50 | > 50 | > 50 | > 50 | > 50 | > 50 | > 50 | > 50 | > 50 | > 50 | – | –
Cc1cc2c(O)c(c1)CN(CC(=O)O)Cc1cc(C)cc(c1O)CN(CC(=O)O)Cc1cc(C)cc(c1O)CN(CC(=O)O)C2 | > 100 | > 100 | > 100 | > 100 | > 100 | > 100 | > 100 | > 100 | > 100 | > 100 | – | –
O=C1C=CC(=O)c2c(O)c(N3CCC[C@H]3CO)c(Cl)c(O)c21 | > 10 | 4.57 | 1.92 | 1.4 | 3.11 | 4.88 | 3.64 | > 10 | 4.53 | > 10 | – | –
CC1C(NNc2ccccc2)Oc2cc3c(cc2C1c1ccccc1O)OCO3 (stereo not given) | 3.49 | 16.2 | 20.5 | 11.6 | 24.1 | 17.2 | 44.3 | 27.4 | 13.1 | 22.3 | – | –
